Experimental data taken from US20100331297A1, “MODULATION OF PROTEIN TRAFFICKING” (FOLDRX PHARMACEUTICALS, INC., priority 2007, published 2010).
pEC50: −log10 of the molar value.

Key:
Assay type in all cases: cell-based
ypt1^ts cells = assay: Rescue of growth of ypt1^ts mutant yeast (OD600); settings: Saccharomyces cerevisiae, read-out: Ypt1-ts MRC (Minimum Rescue Concentration), ypt1^ts cells, 35° C. and 37° C., OD600; multiple results separated by a comma
Text: The activity of the compounds as modulators of protein trafficking may be measured in the assays described herein that evaluate the ability of a compound to rescue an impairment in protein trafficking. For example, the yeast mutant cell line ypt1^ts can be used to identify compounds that rescue cells from the lethal phenotype of a mutant YPT1 allele (see, e.g., Examples and Schmitt et al. (1988) Cell 53:635-47). The activity may be measured, for example, in a whole yeast cell assay using 384-well screening protocol and an optical density measurement.
The yeast mutant cell line ypt1^ts suppresses, in a temperature dependent fashion, the dominant-lethal phenotype of a mutant YPT1 allele (Schmitt et al. (1988) Cell 53:635-47). The yeast mutant cell line ypt1^ts contains an allele of YPT1 that has two point mutations: one that changes an asparagine at position 121 to a isoleucine (N121I) and another that changes an alanine at position 161 to a valine (A161V). The N121I mutation causes dominant lethality by itself, but lethality is suppressed by the second mutation, resulting in a recessive loss of function phenotype at the restrictive temperatures. ypt1^ts cells grow normally at temperatures up to 25° C., but are growth arrested at 37° C. (Id.).
Compounds were screened to assess their ability to restore growth of ypt1^ts cells. The effect of the compounds was measured on ypt1^ts cells cultured at room temperature (permissive temperature), 37° C. (non-permissive temperature), and 35° C. (semi-permissive temperature).
To determine if the test compounds could rescue the ypt1^ts mutant phenotype, ypt1^ts cells were grown overnight in synthetic complete (SC) media supplemented with 2% glucose at room temperature. Log phase cells were diluted into SC 2% glucose media to an OD600 of 0.003. 100 μL of this culture was then aliquoted into each well of 96-well flat bottom microtiter plates. 1 μL of the test compounds dissolved in DMSO (at a concentration range from 5 mM-0.005 mM) or of DMSO alone was added to each well (50 μM-0.05 μM final concentration in 1% DMSO). Plates were mixed by vortexing and incubated at 35° C. and 37° C. Compound rescue of the ypt1^ts temperature sensitive defect was assessed by measuring the OD600 (optical density at 600 nm; cell growth) of the cultures. Plates incubated at 35° C. were measured at 24 and 40 hours incubation time while plates grown at 37° C. were measured after 40 hours of incubation.
Assays monitoring the rescue of ypt1^ts mutants were performed using a vehicle, a positive control (calcium), and the compounds identified in Table II. Results in Table II corresponding to an MRC (Minimum Rescue Concentration) for ypt1^ts of greater than or equal to 50 micromolar are labeled +; of an MRC for ypt1^ts of 10-50 micromolar are labeled ++; and of an MRC for ypt1^ts of less than 10 micromolar are labeled +++. Multiple results for a particular compound are separated by a comma.

ΔF508 CFTR [1] = target: T1, ΔF508 CFTR (Homo sapiens, UniProt P13569, DEL508-508); assay: Corrector activity, YFP halide (iodide) quenching assay in FRT cells expressing ΔF508 CFTR; design: expressed in transfected cells; host or cells: Fischer rat thyroid (FRT) cells; settings: 24 hours with compound at 37° C., forskolin and genistein
T1 sequence (P13569 with tags, fused parts or gaps DEL508-508): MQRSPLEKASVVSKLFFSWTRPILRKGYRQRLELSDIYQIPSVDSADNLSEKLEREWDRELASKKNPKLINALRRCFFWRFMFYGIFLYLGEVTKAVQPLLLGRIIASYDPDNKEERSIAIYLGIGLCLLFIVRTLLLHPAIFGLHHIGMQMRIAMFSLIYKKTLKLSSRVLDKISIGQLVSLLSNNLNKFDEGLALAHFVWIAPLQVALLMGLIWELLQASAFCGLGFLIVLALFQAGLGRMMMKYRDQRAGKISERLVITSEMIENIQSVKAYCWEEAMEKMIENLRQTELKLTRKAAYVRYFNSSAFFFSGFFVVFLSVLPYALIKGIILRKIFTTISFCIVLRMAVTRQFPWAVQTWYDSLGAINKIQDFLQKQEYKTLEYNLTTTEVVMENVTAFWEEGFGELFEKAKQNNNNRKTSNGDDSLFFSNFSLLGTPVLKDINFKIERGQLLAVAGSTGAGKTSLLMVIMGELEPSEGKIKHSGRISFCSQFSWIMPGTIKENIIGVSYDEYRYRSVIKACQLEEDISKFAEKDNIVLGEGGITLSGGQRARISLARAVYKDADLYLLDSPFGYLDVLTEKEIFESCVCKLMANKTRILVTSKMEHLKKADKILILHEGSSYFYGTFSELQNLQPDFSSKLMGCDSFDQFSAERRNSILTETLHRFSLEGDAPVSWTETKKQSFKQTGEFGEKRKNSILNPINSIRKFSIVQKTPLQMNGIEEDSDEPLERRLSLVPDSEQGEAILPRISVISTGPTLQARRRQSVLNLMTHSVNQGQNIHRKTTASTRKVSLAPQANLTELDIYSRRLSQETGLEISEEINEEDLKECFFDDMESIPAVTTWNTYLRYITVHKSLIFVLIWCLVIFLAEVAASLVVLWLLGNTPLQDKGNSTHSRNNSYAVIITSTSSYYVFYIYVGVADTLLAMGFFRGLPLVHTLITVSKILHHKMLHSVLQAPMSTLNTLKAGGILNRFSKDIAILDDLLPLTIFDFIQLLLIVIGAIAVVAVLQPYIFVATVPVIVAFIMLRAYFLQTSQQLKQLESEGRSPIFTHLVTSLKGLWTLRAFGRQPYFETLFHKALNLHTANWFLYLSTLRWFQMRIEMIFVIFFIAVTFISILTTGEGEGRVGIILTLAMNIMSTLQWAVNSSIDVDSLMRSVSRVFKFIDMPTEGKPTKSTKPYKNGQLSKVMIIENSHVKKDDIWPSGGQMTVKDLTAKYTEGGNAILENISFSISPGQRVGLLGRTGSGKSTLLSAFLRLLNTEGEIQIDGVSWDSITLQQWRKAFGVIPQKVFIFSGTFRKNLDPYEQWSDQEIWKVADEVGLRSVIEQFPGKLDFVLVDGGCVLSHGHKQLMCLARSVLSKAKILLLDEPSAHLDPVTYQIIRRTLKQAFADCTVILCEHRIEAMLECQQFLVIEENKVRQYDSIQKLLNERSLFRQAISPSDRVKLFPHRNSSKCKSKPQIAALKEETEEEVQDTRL
Method in brief: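 FRT cells co-expressing ΔF508 CFTR and halide-sensitive YFP were incubated 24 h at 37° C with compounds, then stimulated 30 min at 37° C in PBS with forskolin and genistein. Endpoint fluorescence after iodide injection was normalized to initial reading; EC50 from 4-parameter fit with bottom constrained to DMSO control.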

ΔF508 CFTR [2] = target: T1, ΔF508 CFTR; assay: Potentiator activity, YFP halide (iodide) quenching assay in FRT cells expressing ΔF508 CFTR, 27° C. pre-incubation; design: expressed in transfected cells; host or cells: Fischer rat thyroid (FRT) cells; settings: FRT cells ΔF508 CFTR/YFP, 24 hours at 27° C., compound with forskolin 30 min
Method in brief: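 FRT cells stably co-expressing ΔF508 CFTR and halide-sensitive YFP, grown 24 h at 37° C. then 24 h at 27° C. to raise surface CFTR. Compounds in PBS with forskolin, 30 min at 37° C.; iodide injected and YFP quenching (ex 485/em 530 nm) followed. EC50 from normalized endpoint fluorescence.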

[3] = Corrector EC50, FRT cells ΔF508 CFTR/YFP
[4] = FRT cells ΔF508 CFTR/YFP, read-out: Corrector EC50

Row | SMILES | minimal effective concentration (ypt1^ts cells) [µM] | pEC50 (ΔF508 CFTR [1]; [3]) | pEC50 (ΔF508 CFTR [1]; [4]) | pEC50 (ΔF508 CFTR [2])
1 | CC(C)(C)n1nc(-c2cccc3ccccc23)c2c(N)ncnc21 [compound 6] | 10 to 50 | < 4.82 | – | –
2 | COC(=O)c1cnc2c(c(-c3ccc(C)cc3)nn2C(C)(C)C)c1N [compound 46] | > 50 | – | < 4.82 | < 4.82
3 | CNC(=O)c1cnc2c(c(-c3ccc(C)cc3)nn2C(C)(C)C)c1N [compound 47] | > 50 | – | < 4.82 | < 4.82
4 | CC(C)(C)n1nc(-c2cccc(Cl)c2)c2c(N)ncnc21 [compound 10] | > 50 | – | < 4.82 | > 5.70
5 | CC(=O)Nc1ncnc2c1c(-c1ccc(Cl)cc1)nn2C(C)(C)C [Compound No. 2, N-[1-tert-Butyl-3-(4-chloro-phenyl)-1H-pyrazolo[3,4-d]pyrimidin-4-yl]-acetamide] | > 50 | – | 5.00 to 5.30 | > 5.70
6 | Nc1ncnc2c1c(-c1ccc(Cl)cc1)nn2C1CCC1 [compound 33] | 10 to 50 | – | 5.00 to 5.30 | > 5.70
7 | CCn1cc(-c2ccc(C)cc2)c2c(N)cccc21 [compound 43, 1-Ethyl-3-p-tolyl-1H-indol-4-ylamine] | > 50 | – | < 4.82 | < 4.82
8 | CCn1nc(-c2ccc(C)cc2)c2c(N)cccc21 [compound 44, 1-Ethyl-3-p-tolyl-1H-indazol-4-ylamine] | > 50 | – | < 4.82 | < 4.82
9 | CCn1nc(-c2ccc(Cl)cc2)c2c(N)ncnc21 [compound 31] | < 10 | – | 5.00 to 5.30 | < 4.82
10 | Nc1ncnc2c1c(-c1ccc(Cl)cc1)nn2C1CCCCC1 [compound 3] | > 50 | – | < 4.82 | –
11 | CCn1nc2cccc(N)c2c1-c1ccc(C)cc1 [compound 80] | > 50 | – | < 4.82 | < 4.82
12 | CC(C)n1nc(-c2ccc(Cl)cc2)c2c(N)ncnc21 [compound 27] | 10 to 50 | – | 5.30 to 5.70 | –
13 | Nc1ncnc2c1c(Cc1cccc3ccccc13)nn2C1CCC1 [compound 74] | < 10 | – | < 4.82 | –
14 | Nc1ncnc2c1c(-c1ccc(Cl)cc1)nn2-c1ccccc1 [compound 4] | > 50 | – | < 4.82 | –
15 | CC(C)(C)n1nc(-c2ccc(F)cc2)c2c(NC(=O)c3ccccc3)ncnc21 [compound 40, N-[1-tert-Butyl-3-(4-fluoro-phenyl)-1H-pyrazolo[3,4-d]pyrimidin-4-yl]-benzamide] | > 50 | – | < 4.82 | –
16 | Cn1nc(-c2ccc(Cl)cc2)c2c(N)ncnc21 [compound 1] | > 50 | – | < 4.82 | –
17 | CC(C)(C)n1nc(-c2ccccc2)c2c(N)ncnc21 [compound 8] | > 50 | – | < 4.82 | –
18 | C=CCn1nc(-c2ccc(Cl)cc2)c2c(N)ncnc21 [compound 32] | > 50 | – | < 4.82 | –
19 | CC(C)(C)n1nc(-c2cc3ccccc3s2)c2c(N)ncnc21 [compound 16, 3-Benzo[b]thiophen-2-yl-1-tert-butyl-1H-pyrazolo[3,4-d]pyrimidin-4-ylamine] | > 50 | – | < 4.82 | –
20 | Nc1ncnc2c1c(Cc1cccc3ccccc13)nn2C1CCCC1 [compound 77] | < 10 | – | < 4.82 | –
21 | Cc1ccc(-c2nn(C(C)(C)C)c3ncnc(N)c23)cc1 [compound 24] | 10 to 50 | 5.30 to 5.70 | – | –
22 | Nc1ncnc2c1c(-c1ccc(Cl)cc1)nn2CC1CC1 [compound 29, 3-(4-Chloro-phenyl)-1-cyclopropylmethyl-1H-pyrazolo[3,4-d]pyrimidin-4-ylamine] | < 10 | – | 5.00 to 5.30 | –
23 | CCn1cc(-c2ccc(C)cc2)c2c(N)ncnc21 [compound 86] | 10 to 50 | – | 5.30 to 5.70 | 5.00 to 5.30
24 | Nc1ncnc2c1c(-c1ccc(Cl)cc1)nn2C1CCCC1 [compound 34] | 10 to 50 | – | – | > 5.70
